According to patent publication US20020103172A1, “VITAMIN D3 DERIVATIVES” (priority 1996, published 2002):
Read-outs that look alike come from different tables or passages of the source.

Assays:
calcium metabolism [1] = experiment: Calcemic activity in rats in vivo; conditions: calcemic activity relative to 1,25(OH)2D3, low values preferred
Procedure: (§1) The calcemic activity of the compounds was determined in rats in vivo, as previously described (Binderup, L., Bramm, E., Biochem. Pharmacol. 37, 889-895 (1988)).

[2] = system: HaCaT, a spontaneously immortalized, non-tumorigenic human skin keratinocyte cell line; experiment: HaCaT antiproliferative assay measuring 3H-thymidine uptake; type: cell-based; conditions: for potency in the HaCaT-assay (psoriasis model), in words: compared with 1,25(OH)2D3; for HaCaT rel.: ratio between IC50 of 1,25(OH)2D3 and IC50 of the compound, 50% inhibition of 3H-thymidine incorporation, value >1 = more active than 1,25(OH)2D3
Text: A useful assay for the rating of test compounds for antiproliferative activity in skin cells, e.g. antipsoriatic effect, is the in vitro assay using HaCaT, a spontaneously immortalized, non-tumorigenic human skin keratinocyte cell line (Mørk Hansen, C. et al., J. Invest. Dermatol. 1, 44-48 (1996)), measuring ^3H -thymidine uptake.

mouse spleen lymphocytes = experiment: Mixed lymphocyte reaction assay (MLR), allogeneic stimulation, 3H-thymidine incorporation; type: cell-based; conditions: for MLR rel.: ratio between IC50 of 1,25(OH)2D3 and IC50 of the compound, 72 hours incubation, 3H-thymidine incorporation, value >1 = more active than 1,25(OH)2D3
Procedure: An in vitro assay for the rating of test compounds for immunosuppressive potency is the mixed lymphocyte reaction assay, “MLR”, measuring the allogeneic stimulation of mouse spleen lymphocytes: lymphocytes, obtained from the spleens of BALB/c and CB6F1 mice, are stimulated by co-cultivating 5×10^6/ml cells from BALB/c mice (responders) with 7.5×10^6/ml cells from CB6F1 mice (inducers). The mixed cultures of lymphocytes are incubated with the test compounds for 72 hours. Cellular DNA-synthesis is assessed by the incorporation of ^3H-thymidine in the DNA.

calcium metabolism [3] = conditions: rat, in vivo
Procedure: as §1

| Structure (SMILES) | Calc. rel. (calcium metabolism [1]) | potency in the HaCaT-assay (psoriasis model), in words [2] | HaCaT rel. [2] | immunosuppressive activity (MLR), in words (mouse spleen lymphocytes) | MLR rel. (mouse spleen lymphocytes) | Calc. rel. (calcium metabolism [3]) |
| --- | --- | --- | --- | --- | --- | --- |
| C=C1C(=CC=C2CCCC3(C)C(C(C)C=CC=CC(O)(CC)CC)=CCC23)CC(O)CC1O [Compound 111, 1(S),3(R)-Dihydroxy-20(R)-(5-ethyl-5-hydroxyhepta-1(E),3(E)-dien-1-yl)-9,10-seco-pregna-5(Z),7(E),10(19)16-tetraene] | 1.47 | considerably more potent than 1,25(OH)2D3 | 51 | potent effects | 6.5 | – |
| C=C1/C(=C\C=C2/CCC[C@]3(C)[C@@H]([C@H](C)CCCC(C)(C)O)CC[C@@H]23)C[C@@H](O)C[C@@H]1O [1,25, 1α,25-dihydroxy-vitamin D3, reference compound] | – | – | 1 | – | 1 | 1 |
| C=C1C(=CC=C2CCCC3(C)C(C(C)CCCCC(O)(CC)CC)=CCC23)CC(O)CC1O [Compound 107, 1(S),3(R)-Dihydroxy-20(R)-(5-ethyl-5-hydroxyhept-1-yl)-9,10-seco-oregna-5(Z),7(E),10(19),16-tetraene] | 0.54 | considerably more potent than 1,25(OH)2D3 | 43 | potent effects | 5 | – |
